We go through 5 substances from PMC10107917 (ACS Medicinal Chemistry Letters, 2023).

Read-outs that look alike come from different tables or passages of the source. Square brackets hold non-standard residues; d marks the D form. * marks the point of attachment. AMC = Cc1cc(=O)oc2cc(N*)ccc12; pGlu = O=C1CC[C@@H](C(=O)O)N1

The target in data set [1] is T1, human recombinant furin (Homo sapiens, UniProt P09958).
T1 construct: Soluble human recombinant furin was kindly gifted; gift of Dr Anna Kwiatkowska (group of Prof. Robert Day, Université de Sherbrooke)
T1 sequence (P09958 108-715 limits assumed): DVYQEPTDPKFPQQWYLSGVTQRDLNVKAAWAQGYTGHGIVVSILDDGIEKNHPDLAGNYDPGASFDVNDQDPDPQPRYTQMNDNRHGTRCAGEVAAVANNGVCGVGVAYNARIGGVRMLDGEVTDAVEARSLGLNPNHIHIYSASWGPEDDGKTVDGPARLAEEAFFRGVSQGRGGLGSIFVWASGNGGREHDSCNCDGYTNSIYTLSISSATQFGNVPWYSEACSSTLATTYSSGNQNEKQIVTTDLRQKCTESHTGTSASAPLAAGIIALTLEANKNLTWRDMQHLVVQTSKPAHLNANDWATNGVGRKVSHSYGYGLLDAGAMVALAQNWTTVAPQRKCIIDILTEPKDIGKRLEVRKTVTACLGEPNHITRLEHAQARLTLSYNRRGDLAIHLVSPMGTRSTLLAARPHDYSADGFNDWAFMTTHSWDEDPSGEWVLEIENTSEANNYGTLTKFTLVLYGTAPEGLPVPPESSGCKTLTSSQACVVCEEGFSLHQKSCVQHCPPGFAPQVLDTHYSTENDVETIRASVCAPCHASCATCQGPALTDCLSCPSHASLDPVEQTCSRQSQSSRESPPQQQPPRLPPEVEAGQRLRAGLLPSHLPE
Format: biochemical. As for the experimental part:
Initially, the activities of the furin inhibitors were screened at three concentrations, i.e., 2.4, 24.0, and 77.0 nM (Figure 4). For selected peptides 3, 5, and 6 and the reference FI, the inhibitory constants (Ki) were calculated (Table 2). Except for the bicyclic peptide 4, all of the inhibitors almost completely abolished the enzyme activity at the highest tested concentration. Peptide 4 was explicitly the weakest inhibitor in the series, also when compared with its monocyclic disulfide-bridged counterpart 1. When the inhibitory activities were analyzed at the lowest tested concentration (2.4 nM), three peptides (3, 5, and 6) reduced the furin activity to less than 50% of its initial noninhibited activity. All of them have an additional basic amino acid at their N-termini (in MD simulations this is depicted as a residue with number “0”). […] Such close inhibitory potency was not observed in the case of an analogous pair, i.e., 2 and 5. […] The two disulfide-bridged peptides, FI and 1, differ only at the P4 position, having Lys and Arg, respectively. […]
The IC50 values (inhibitor concentrations giving 50% inhibition of enzyme activity) were calculated from plots of enzyme activity (% of control sample) versus the inhibitor’s concentration using a four-parameter fit model (GraFit 5.0.12 Erithacus Software Ltd.). The IC50 values were determined from triplicate measurements with at least seven different inhibitor concentrations. The K i values […] were calculated using the Cheng-Prusoff equation, assuming the competitive mode of inhibition, according to the following relationship: IC50 = K i(1+S/Km). All measurements were performed using a Fluostar Omega microplate reader (BMG Labtech, Germany) and 96-well black plates (BRAND, Germany). Recombinant human matriptase-1/ST14 catalytic domain was purchased from R&D Systems, USA. Recombinant human matriptase-2 was obtained from Enzo Life Sciences, Switzerland.
Soluble human recombinant furin was kindly gifted by Dr Anna Kwiatkowska (group of Prof. Robert Day from Université de Sherbrooke).4
The following assay buffers were used: […] (matriptase-1 and matriptase-2), pH 7.5 100 mM HEPES with 1 mM CaCl 2 and 1.8 mg/mL BSA (furin). The substrates used in the assays were as follows: for matriptase-1 and matriptase-2 Boc-Gln-Ala-Arg-AMC (Pepta Nova, Germany) in final concentration of 5 µM, for furin […] (Pepta Nova, Germany) in final concentration of 20 µM. Enzymes concentrations were as follows: 1.25 ng/mL of matriptase-1, 1.51 U/mL for matriptase-2, and 1.1 nM for furin. In the case of matriptase-1 and matripase-2 concentrations were calculated according to information provided by the suppliers.
In short, the tested compounds were added to the appropriate protease in different concentrations and incubated in an assay buffer at 37 °C for 30 min. After this time, a solution of appropriate substrate was added. Reactions were monitored for at least 40 min at 37 °C. The final volume in each well was 200 µL for matriptases and 100 µL for furin. Measurements were carried out using excitation and emission wavelengths of 380 nm and 450 nm. The percentage inhibition of an enzyme was calculated relative to the control sample without an inhibitor. The K m value for furin substrate was determined by incubating the enzyme with its substrate in various concentrations as recommended.5 Plots of the substrate concentration versus the initial reaction velocity were analyzed according to Michaelis-Menten equation using GraFit 5.0.12 Erithacus Software Ltd. A double reciprocal (Lineweaver-Burk) plot was used to determine the Michaelis constant K m value. K m value determined for furin was 1.90 µM.
(§1) Total furin-like enzyme inhibition/activity in PANC-1 cell lysates
Cell line and cell culture. The pancreatic cancer cell line, PANC-1, was obtained from the American Type Culture Collection, ATCC (Manassas, USA). […]

Data set [2] relates to furin-like enzyme activity in PANC-1 cell lysate. As to the kind of experiment: Total furin-like enzyme activity in PANC-1 cell lysate. Type of data set: biochemical, human. Conditions: peptide 100 µM. As for the experimental part: The presence of furin in PANC-1 cell lysate was indicated by analyzing the release of fluorescent AMC product after incubation of furin substrate (Pyr-Arg-Thr-Lys-Arg-AMC) in the lysate, as described elsewhere.[31],[32] However, we are aware that this assay tends to reflect total furin-like enzyme activity rather than the activity of furin exclusively. This is the case because the liberation of AMC may be catalyzed not only by furin but also by an enzyme with a similar substrate preference, such as other PCs.[31] […] For comparison, the effect of a strong trypsin inhibitor, […] SFTI-1, on furin-like activity was insignificant under the same assay conditions. […] It is likely that SFTI-1 may provide protection for furin inhibitors from degradation by trypsin-like proteases. […]
µL for matriptases and 100 µL for furin. Measurements were carried out using excitation and emission wavelengths of 380 nm and 450 nm. The percentage inhibition of an enzyme was calculated relative to the control sample without an inhibitor. […]
as §1
Cell line and cell culture. The pancreatic cancer cell line, PANC-1, was obtained from the American Type Culture Collection, ATCC (Manassas, USA). PANC-1, a human pancreatic cancer cell line, was isolated from the pancreatic duct (ATCC, CRL-1469) and was cultured in Dulbecco’s Modified Eagle’s Medium (DMEM) by supplementing 10% fetal bovine serum (FBS) and 1% of penicillin/streptomycin (P/S). Cells were cultured at 37 °C with 5% CO2 in a humidified atmosphere. Cells were maintained in a 75 cm2 tissue culture flask. The medium was replaced every two days. The subcultivation ratio was […]
Preparation of lysates. PANC-1 cells were seeded in a Petri dishes. After 24 hours, […] were collected and centrifuged at 975 × g at 4 °C for 9 minutes. The supernatant was removed, and the cells were resuspended in a cold PBS buffer. The cells were centrifuged again at 900 × g at 4 °C for 5 minutes.
The supernatant was removed. Cells were suspended in Halt Protease Inhibitor Cocktail, EDTA-Free (100X) (Thermo Fisher Scientific). The samples were stored for 2 hours at -80°C. The samples were then defrosted and centrifuged at 16 000 × g at 4 °C for 20 minutes. The supernatant was stored at -80 […]
The inhibitory potency of selected peptides was examined in cell lysate alone or in presence of sunflower trypsin inhibitor (SFTI-1)6 sing furin fluorogenic substrate […] (Pepta Nova, Germany). Furin activity was determined by monitoring the AMC liberation over time with a plate reader. Measurements were performed using 96-well black plates (BRAND, Germany).
The general procedure was according to.7 In short: 20 µL of cell lysate (diluted 10 times with assay buffer pH 7.5 100 mM HEPES with 1 mM CaCl 2) was added to the well containing 60 µL of water, after 15 min in 37 °C 10 µL of peptide solution (final concentration in well 100 µM) was added. After 30 min incubation in 37 °C 10 µL substrate (100 µM final concentration) was added. […]
Next step was addition of appropriate peptide solution
(final concentration in well 100 µM) and 30 min incubation in 37 °C. After this time 10 µL substrate (100 µM final concentration) was added to the well. Percentage inhibition of the enzyme was calculated relative to the control sample without inhibitor.
Human serum from plasma (Sigma Aldrich, Germany) was prepared for the assay as referred previously.8 The experiments were carried out according to the procedure described before.2 The initial concentration of the peptide solutions was 1.54 mM. Each peptide solution was then diluted 10 times with human serum and incubated at 37 °C. Immediately after the start of incubation, 1, 2, 3, 5 and 24

A short description of data set [3]: PANC-1 cell lysate. Conditions: human, 37 °C.
In data set [4] the target is T1, human recombinant furin. The experiment in a line: Screening (iterative deconvolution) of peptide sublibraries for furin inhibition. Type of data set: biochemical. Conditions: Figure 3D1. The protocol: Each of the sublibraries was screened for inhibitory activity against human recombinant furin in the presence of the fluorogenic substrate Pyr-Arg-Thr-Lys-Arg-AMC (where Pyr is pyroglutamic acid and AMC is 7-amino-4-methylcoumarin). Initially, each sublibrary was screened in a 2.2 ng/mL stock solution (Figure 3).
Phe(4-NH-Boc) we experienced difficulties with complete coupling. So we performed reactions by applying microwave heating (50 °C) which improved the process. The same procedures were applied during the whole library synthesis. 10% of mass of each portion was removed for deconvolution.
2. After that, both portions were combined and divided into 10 (j) equal portions, each of which was acylated individually with different protected amino acid. 10% of the mass of each portion was removed for deconvolution.
3. After mixing all j portions of peptidyl–resin, Cys protected derivative was attached.
4. […]
6. Sublibraries with fixed best hits in Xaa (l-j) were subsequently synthesized (using previously put aside 10% of synthesized sublibraries) and their inhibitory activity was determined until the position Xi. […] The inhibitory activity of sublibraries against furin were measured using Pyr-Arg-Thr-Lys-Arg-AMC fluorogenic substrate (Pepta Nova). The experiments were performed on 96-well plates (BRAND, Germany) and microplate reader FluoStar Omega (BMG Labtech, Germany). […]

The mark [5] stands for this setting: inhibitor 77.0 nM (highest tested concentration).

“Lys-Arg-Arg-Cys(&)-Lys-Lys-Ser-Ile-Pro-Pro-Ile-Cys(&)-Phe-NH2 [inhibitor 2]”: the “furin activity versus control with no inhibitor added” value is 66.51% in data set [1] (inhibitor 2.4 nM), 3.98% in data set [1] (inhibitor 24.0 nM) and 0.10% in data set [1] (setting [5]).

As to “sunflower trypsin inhibitor 1 [SFTI-1, reference compound]”, the “effect on furin-like activity in PANC-1 cell lysate” value in data set [2] is on record as “insignificant”.

Regarding [pGlu]RTKR-{AMC}, the cleaved bond entry in data set [3] was “Arg-AMC”.

Turning to “&^1Arg-Arg-Cys(&^2)-Lys-Lys-Ser-Ile-Pro-Pro-Ile-Cys(&^2)-Phe&^1 (KKSIPPIC; Arg-Arg-Cys, Phe; head-to-tail cyclised, disulfide; printed: Lys-Lys-Ser-Ile-Pro-Pro-Ile-Cys) [inhibitor 4]”, the “furin activity versus control with no inhibitor added” value is 97.18% in data set [1] (inhibitor 2.4 nM), 46.14% in data set [1] (inhibitor 24.0 nM) and 3.72% in data set [1] (setting [5]).

Turning to “Arg-Arg-Cys(&)-Lys-Lys-Ser-Ile-Pro-Pro-Ile-Cys(&)-Phe-NH2 [inhibitor 1]”, the figures for the “furin activity versus control with no inhibitor added” value in data set [1] (inhibitor 2.4 nM), in data set [1] (inhibitor 24.0 nM) and in data set [1] (setting [5]) were 62.95%, 6.02% and 0.20%, respectively. The “times more active than the peptide with Orn at P2” value in data set [4] is listed as 2–3 times.
